We go through two molecules from BindingDB's records for doi:10.1016/j.bmc.2012.03.044 (University of Mansoura, 2012).

For orientation: IC50 means the midpoint of a concentration-inhibition curve. A higher IC50 goes with a need for much substance.

This assay has as its target T1, Prostaglandin G/H synthase 1 (Ovis aries, UniProt P05979).
T1 sequence (P05979 whole entry): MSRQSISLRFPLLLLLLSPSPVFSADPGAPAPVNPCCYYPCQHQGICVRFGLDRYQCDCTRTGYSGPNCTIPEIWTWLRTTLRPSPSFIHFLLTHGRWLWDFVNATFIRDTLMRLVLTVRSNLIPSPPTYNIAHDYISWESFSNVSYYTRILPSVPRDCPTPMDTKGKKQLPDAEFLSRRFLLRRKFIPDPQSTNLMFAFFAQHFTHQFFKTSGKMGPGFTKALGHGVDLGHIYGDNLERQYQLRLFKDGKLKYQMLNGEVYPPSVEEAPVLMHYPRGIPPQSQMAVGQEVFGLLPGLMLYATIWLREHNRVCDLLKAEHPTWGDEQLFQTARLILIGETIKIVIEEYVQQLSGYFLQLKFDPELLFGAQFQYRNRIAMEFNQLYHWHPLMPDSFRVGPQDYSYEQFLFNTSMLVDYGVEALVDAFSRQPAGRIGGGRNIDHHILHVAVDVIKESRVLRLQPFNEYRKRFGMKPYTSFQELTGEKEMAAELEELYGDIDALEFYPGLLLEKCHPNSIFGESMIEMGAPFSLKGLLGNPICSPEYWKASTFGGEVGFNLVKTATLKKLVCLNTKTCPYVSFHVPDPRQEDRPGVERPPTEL
As to the kind of experiment: Inhibition of ovine COX1 by enzyme immuno assay.

As for `O=C1Nc2ccc(F)cc2C12CC(c1ccc(Br)cc1)N=N2` (configuration not stated), the IC50 was greater than 50 µM.
For `Cc1ccc(C2CC3(N=N2)C(=O)Nc2ccc(F)cc23)cc1` (configuration not stated) the value was greater than 50 µM.
